Values belong to the molecule of their own block, whether it stands above or below them.
Legend:
[1] = molecular target: Mitogen-activated protein kinase 1 (Homo sapiens, UniProt P28482); experiment: Selectivity interaction (Rxn Biology Kinase assay) EUB0001632a MAPK1; conditions: at 10 µM
Adenosine receptor A1 = Adenosine receptor A1 (Homo sapiens, UniProt P30542); experiment: Selectivity interaction (Adenosine 1 receptor binding assay, human recombinant) EUB0000877a ADORA1
[2] = Selectivity interaction (KinomeScan (DiscoverX)) EUB0000607a CDPK1; conditions: at 10 µM
[3] = molecular target: T1, Interleukin-1 receptor-associated kinase 4 (Homo sapiens) (UniProt Q9NWZ3); experiment: Selectivity interaction (KinomeScan (DiscoverX)) EUB0000607a IRAK4; conditions: at 10 µM
T1 sequence (whole entry): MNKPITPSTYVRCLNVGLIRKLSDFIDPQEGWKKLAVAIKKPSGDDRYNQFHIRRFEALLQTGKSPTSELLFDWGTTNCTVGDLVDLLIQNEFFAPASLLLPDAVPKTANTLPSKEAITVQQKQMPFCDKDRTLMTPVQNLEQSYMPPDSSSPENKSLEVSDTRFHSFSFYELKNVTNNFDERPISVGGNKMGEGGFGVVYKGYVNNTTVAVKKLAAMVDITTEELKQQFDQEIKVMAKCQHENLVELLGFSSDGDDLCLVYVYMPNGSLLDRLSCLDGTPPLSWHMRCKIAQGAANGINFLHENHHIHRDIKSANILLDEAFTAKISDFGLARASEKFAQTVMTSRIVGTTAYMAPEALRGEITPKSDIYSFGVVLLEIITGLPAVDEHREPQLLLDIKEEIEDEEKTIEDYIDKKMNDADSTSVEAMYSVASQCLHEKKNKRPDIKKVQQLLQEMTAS

[4] = molecular target: Receptor-interacting serine/threonine-protein kinase 2 (Homo sapiens, UniProt O43353); conditions: at 10 µM
Chain of Receptor-interacting serine/threonine-protein kinase 2 (O43353 whole entry): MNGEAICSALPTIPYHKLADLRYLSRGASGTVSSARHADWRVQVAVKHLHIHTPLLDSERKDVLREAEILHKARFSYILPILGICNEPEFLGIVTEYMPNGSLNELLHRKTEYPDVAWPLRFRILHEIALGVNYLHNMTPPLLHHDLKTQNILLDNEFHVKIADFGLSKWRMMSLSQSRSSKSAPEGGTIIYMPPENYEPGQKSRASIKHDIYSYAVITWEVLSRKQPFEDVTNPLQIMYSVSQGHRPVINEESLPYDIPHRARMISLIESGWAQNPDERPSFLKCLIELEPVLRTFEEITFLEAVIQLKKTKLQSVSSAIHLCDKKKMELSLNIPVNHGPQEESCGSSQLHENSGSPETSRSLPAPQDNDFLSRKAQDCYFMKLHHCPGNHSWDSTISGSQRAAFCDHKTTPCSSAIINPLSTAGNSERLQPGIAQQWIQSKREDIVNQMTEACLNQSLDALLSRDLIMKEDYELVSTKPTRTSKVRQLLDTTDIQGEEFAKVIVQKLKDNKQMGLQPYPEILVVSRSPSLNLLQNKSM

[5] = molecular target: Serine/threonine-protein kinase Nek7 (Homo sapiens) (UniProt Q8TDX7); experiment: Selectivity interaction (ProQinase) EUB0000171b NEK7
Chain of Serine/threonine-protein kinase Nek7 (Homo sapiens) (Q8TDX7 whole entry, looked up): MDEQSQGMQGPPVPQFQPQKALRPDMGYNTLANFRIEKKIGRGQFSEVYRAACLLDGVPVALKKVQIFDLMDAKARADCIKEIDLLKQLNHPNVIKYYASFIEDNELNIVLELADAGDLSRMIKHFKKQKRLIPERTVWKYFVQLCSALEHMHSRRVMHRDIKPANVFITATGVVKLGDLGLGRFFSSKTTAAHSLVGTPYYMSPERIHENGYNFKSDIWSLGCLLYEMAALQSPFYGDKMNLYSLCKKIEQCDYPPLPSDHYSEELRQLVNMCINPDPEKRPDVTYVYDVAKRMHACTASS

[6] = molecular target: T2, Protein kinase C epsilon type (Homo sapiens) (UniProt Q02156); experiment: Selectivity interaction (KinomeScan (DiscoverX)) EUB0000695a PRKCE; conditions: at 100 nM
T2 sequence (whole entry): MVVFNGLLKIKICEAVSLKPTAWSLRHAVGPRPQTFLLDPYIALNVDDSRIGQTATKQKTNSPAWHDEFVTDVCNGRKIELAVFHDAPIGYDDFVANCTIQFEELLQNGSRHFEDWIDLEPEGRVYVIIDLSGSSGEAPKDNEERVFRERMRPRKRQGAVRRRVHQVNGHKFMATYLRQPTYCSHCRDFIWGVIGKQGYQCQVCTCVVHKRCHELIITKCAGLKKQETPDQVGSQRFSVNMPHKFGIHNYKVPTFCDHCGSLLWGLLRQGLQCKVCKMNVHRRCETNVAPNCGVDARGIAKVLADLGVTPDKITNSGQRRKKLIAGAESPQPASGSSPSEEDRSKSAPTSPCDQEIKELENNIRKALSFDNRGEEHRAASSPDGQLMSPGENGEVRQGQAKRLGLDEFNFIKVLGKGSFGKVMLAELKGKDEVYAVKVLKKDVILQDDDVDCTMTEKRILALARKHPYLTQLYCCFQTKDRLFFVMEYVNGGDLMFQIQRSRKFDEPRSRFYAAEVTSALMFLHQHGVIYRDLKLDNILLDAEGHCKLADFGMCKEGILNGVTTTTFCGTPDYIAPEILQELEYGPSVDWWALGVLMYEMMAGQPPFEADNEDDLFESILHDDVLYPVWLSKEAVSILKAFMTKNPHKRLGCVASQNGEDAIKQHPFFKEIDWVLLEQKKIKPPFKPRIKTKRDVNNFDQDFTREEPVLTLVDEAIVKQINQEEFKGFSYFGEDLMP

[7] = molecular target: Protein-tyrosine kinase 2-beta (Homo sapiens) (UniProt Q14289); experiment: Selectivity interaction (KinomeScan (DiscoverX)) EUB0000595a PTK2B; conditions: at 10 µM
Chain of Protein-tyrosine kinase 2-beta (Homo sapiens) (Q14289 whole entry, looked up): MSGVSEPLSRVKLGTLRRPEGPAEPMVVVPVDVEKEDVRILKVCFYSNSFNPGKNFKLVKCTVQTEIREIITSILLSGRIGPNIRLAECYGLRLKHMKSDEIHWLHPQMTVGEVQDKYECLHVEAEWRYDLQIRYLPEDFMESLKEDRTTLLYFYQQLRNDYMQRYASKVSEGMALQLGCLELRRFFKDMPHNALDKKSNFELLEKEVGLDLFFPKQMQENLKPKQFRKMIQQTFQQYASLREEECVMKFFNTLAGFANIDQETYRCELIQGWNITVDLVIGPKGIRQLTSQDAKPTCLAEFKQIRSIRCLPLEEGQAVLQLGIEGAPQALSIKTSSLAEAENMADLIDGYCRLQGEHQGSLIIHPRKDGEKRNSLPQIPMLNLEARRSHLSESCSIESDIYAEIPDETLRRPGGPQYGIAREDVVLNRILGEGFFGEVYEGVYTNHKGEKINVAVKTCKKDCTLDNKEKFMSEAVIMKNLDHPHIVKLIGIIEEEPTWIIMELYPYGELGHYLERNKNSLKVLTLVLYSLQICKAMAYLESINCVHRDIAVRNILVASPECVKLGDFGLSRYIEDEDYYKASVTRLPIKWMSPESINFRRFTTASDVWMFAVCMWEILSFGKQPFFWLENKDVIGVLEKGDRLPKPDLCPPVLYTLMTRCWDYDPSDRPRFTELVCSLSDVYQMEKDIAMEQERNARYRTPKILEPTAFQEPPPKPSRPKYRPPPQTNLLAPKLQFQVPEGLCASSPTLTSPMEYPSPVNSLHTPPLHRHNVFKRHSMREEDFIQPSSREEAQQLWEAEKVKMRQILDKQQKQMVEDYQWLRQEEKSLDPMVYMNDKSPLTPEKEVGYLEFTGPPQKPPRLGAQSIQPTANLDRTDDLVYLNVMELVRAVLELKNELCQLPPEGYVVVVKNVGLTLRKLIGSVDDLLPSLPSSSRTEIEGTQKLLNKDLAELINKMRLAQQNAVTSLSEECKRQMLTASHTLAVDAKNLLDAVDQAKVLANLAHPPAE

[8] = molecular target: Dual specificity tyrosine-phosphorylation-regulated kinase 1A (Homo sapiens, UniProt Q13627); experiment: Selectivity interaction (KinomeScan (DiscoverX)) EUB0001049a DYRK1A; conditions: at 1 µM
[9] = molecular target: Tyrosine-protein kinase ABL1 (Homo sapiens, UniProt P00519); experiment: Selectivity interaction (KinomeScan (DiscoverX)) EUB0000655a ABL1; conditions: at 10 µM
Chain of Tyrosine-protein kinase ABL1 (P00519 whole entry): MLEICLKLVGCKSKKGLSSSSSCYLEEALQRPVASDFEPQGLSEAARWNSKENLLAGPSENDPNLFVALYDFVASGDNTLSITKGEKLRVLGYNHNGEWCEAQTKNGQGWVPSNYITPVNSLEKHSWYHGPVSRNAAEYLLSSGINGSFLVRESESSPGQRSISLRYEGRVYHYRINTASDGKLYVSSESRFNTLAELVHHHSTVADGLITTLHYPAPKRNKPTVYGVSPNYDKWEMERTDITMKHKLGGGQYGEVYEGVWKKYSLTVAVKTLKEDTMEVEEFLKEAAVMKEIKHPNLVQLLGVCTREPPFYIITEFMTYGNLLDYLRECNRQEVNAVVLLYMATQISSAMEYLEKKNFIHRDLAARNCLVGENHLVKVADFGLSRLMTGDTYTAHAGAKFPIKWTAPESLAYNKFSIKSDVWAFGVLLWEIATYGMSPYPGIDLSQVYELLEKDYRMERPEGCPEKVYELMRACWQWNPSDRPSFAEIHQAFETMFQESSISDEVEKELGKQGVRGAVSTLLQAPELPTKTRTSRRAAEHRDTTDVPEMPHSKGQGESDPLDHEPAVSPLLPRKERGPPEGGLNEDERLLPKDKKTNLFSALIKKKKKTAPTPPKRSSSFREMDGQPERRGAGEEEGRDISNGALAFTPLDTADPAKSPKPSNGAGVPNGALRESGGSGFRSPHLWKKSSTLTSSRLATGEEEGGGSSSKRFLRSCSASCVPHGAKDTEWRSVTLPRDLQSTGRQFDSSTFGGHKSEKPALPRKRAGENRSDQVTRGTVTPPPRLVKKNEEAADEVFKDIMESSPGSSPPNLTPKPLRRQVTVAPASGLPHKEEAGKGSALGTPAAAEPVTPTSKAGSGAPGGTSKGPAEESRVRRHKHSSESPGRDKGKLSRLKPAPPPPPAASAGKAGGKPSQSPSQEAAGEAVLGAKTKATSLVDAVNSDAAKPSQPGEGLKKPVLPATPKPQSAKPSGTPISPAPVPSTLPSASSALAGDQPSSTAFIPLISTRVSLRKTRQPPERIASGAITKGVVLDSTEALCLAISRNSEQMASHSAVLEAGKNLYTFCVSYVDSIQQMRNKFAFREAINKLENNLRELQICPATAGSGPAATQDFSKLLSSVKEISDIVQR

[10] = molecular target: Tyrosine-protein kinase receptor UFO (Homo sapiens) (UniProt P30530); experiment: Selectivity interaction (KinomeScan (DiscoverX)) EUB0000045b AXL
Chain of Tyrosine-protein kinase receptor UFO (Homo sapiens) (P30530 whole entry, canonical isoform): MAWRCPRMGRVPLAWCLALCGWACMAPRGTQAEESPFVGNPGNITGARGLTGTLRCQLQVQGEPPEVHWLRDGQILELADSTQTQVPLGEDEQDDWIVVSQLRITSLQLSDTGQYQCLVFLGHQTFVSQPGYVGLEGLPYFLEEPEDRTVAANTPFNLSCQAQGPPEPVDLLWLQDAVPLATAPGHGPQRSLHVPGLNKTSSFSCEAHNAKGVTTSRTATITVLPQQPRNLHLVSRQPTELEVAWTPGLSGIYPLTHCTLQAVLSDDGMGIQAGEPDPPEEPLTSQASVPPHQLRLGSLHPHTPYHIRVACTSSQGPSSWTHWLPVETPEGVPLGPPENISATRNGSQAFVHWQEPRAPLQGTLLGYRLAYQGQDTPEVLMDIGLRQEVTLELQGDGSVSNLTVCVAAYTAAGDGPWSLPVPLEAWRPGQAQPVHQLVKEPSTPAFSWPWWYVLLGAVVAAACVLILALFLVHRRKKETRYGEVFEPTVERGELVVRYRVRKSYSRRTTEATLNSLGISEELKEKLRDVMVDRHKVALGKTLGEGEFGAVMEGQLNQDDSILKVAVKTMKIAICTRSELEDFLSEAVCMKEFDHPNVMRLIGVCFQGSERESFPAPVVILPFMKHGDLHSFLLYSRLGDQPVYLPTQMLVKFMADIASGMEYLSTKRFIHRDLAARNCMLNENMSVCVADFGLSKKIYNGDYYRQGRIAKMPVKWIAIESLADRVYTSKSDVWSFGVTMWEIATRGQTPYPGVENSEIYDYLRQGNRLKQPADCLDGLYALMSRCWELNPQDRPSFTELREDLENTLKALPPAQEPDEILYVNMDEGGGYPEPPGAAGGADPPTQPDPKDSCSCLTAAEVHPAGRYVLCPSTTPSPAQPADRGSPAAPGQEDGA

[11] = molecular target: T3, Phosphatidylinositol 4,5-bisphosphate 3-kinase catalytic subunit delta isoform (Homo sapiens) (UniProt O00329); experiment: Selectivity interaction (ActivX KiNativ screen (ex vivo kinase selectivity in human PBMCs)) EUB0001619a PIK3CD; type: cell-based; conditions: PBMC, at 1 µM
T3 sequence (whole entry): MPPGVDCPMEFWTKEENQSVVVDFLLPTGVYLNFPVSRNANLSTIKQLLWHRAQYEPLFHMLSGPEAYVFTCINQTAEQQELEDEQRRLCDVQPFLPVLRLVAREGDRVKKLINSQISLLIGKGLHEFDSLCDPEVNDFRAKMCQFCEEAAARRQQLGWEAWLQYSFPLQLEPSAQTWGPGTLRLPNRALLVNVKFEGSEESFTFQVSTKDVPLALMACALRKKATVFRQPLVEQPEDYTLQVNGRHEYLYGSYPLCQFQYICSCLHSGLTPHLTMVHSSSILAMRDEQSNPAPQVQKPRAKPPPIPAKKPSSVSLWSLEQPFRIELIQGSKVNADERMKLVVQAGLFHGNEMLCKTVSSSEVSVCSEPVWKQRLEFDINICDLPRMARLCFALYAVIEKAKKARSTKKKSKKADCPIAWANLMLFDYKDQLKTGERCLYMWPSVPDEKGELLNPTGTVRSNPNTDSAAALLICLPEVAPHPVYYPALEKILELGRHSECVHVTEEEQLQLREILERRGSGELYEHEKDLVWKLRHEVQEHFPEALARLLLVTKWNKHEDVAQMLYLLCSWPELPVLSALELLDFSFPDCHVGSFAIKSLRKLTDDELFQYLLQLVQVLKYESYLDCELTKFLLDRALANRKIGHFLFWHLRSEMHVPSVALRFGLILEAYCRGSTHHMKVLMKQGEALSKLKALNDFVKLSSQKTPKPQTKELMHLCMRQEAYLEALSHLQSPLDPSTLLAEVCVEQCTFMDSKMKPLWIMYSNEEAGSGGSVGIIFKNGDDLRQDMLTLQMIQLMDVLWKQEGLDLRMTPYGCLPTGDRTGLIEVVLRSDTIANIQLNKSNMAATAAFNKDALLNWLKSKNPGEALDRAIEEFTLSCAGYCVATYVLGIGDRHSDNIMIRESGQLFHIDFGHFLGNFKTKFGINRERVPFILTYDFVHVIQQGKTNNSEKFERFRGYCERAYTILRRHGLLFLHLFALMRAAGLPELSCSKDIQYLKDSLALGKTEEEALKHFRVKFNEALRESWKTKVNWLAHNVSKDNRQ

Chain of Mitogen-activated protein kinase 1 (P28482 whole entry): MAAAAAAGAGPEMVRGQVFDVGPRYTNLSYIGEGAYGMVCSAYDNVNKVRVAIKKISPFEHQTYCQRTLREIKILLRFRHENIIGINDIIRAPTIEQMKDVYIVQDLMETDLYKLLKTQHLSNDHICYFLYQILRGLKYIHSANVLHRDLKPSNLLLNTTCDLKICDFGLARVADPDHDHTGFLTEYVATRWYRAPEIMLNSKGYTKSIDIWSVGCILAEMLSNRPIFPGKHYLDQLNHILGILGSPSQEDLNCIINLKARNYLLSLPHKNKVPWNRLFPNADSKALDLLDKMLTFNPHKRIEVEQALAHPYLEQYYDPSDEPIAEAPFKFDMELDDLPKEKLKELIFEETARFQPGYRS
Chain of Adenosine receptor A1 (P30542 whole entry): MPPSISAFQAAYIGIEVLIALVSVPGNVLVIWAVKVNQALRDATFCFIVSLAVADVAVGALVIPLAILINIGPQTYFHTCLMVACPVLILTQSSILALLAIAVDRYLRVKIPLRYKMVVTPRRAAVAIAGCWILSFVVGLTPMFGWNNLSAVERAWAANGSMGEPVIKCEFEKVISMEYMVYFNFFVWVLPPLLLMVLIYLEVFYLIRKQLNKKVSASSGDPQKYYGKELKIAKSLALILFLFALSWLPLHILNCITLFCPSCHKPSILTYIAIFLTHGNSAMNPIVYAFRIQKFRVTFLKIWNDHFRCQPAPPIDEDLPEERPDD

% of inhibition [1]: 5.79%
SMILES: Cn1cc(-n2cnc3c(NCc4nc5cc(Cl)c(Cl)cc5[nH]4)nc(N4CCOCC4)nc32)cn1

IC50 (Adenosine receptor A1): > 30 µM
SMILES: CCC(=O)N1CC[C@H](Nc2ncnc3c2CN(c2cnc(OC)c(C(F)(F)F)c2)CC3)C1 [LENIOLISIB]

SMILES: CNC(=O)Nc1ccc(-c2nc(N3CC4CCC(C3)O4)c3cnn(C4CCC5(CC4)OCCO5)c3n2)cc1
% of control [2]: 86%
% of control [3]: 100%

% of control [4]: 100%
SMILES: CCN(CC)CCCCNc1ncc2cc(-c3cc(OC)cc(OC)c3)c(NC(=O)NC(C)(C)C)nc2n1

% of control ([5]; at 1 µM): 91%
% of control ([5]; at 5 µM): 95%
SMILES: C=CC(=O)Nc1cccc(C(=O)Nc2ccc(Nc3cc(-c4[nH]c(SC)nc4C)ccn3)cc2)c1

SMILES: Cc1cc(F)c(C(=O)Nc2cccc(-c3nncn3C(C)C)n2)cc1-n1cnc(C2CC2)c1
% of control [6]: 97%

SMILES: COCC(=O)NC/C=C/c1ccc2ncnc(Nc3ccc(Oc4ccc(C)nc4)c(C)c3)c2c1 [CP-724714]
% of control [7]: 80%

SMILES: COc1cc(Nc2nc(C)cc(-c3cnn4nc(OC)ccc34)n2)cc(C(F)(F)F)c1
% of control [8]: 74%

SMILES: CN(C)CCOc1ccc(-c2nc(-c3ccncc3)c(-c3ccc4c(c3)CC/C4=N\O)[nH]2)cc1
% of control [9]: 6%

SMILES: C=CC(=O)Nc1cc(-n2c(=O)ccc3cnc4ccc(-c5ccc(NS(C)(=O)=O)cc5)cc4c32)ccc1C
% of control ([10]; at 1 µM): 100%
% of control ([10]; at 10 µM): 100%

SMILES: N#Cc1cccc(-c2c[nH]c3ncnc(N4CCOCC4)c23)c1
% of inhibition [11]: -12%

Reference: ChEMBL document CHEMBL5465560, “Selectivity Literature for EUbOPEN Chemogenomic Library” (2024)
